Key:
[1] = molecular target: 5-hydroxytryptamine receptor 4 (Homo sapiens) (UniProt Q13639); test: Inhibition of Serotonin (5-Hydroxytryptamine) 5-HT4 at 10 µM in the Eurofins-Panlabs radioligand binding assay (Eurofins_assay_272000); conditions: Cavia porcellus; Compound concentration 10.0 uM
[2] = molecular target: 5-hydroxytryptamine receptor 2B (Homo sapiens) (UniProt P41595); conditions: Compound concentration 10.0 uM
[3] = molecular target: Kappa-type opioid receptor (Homo sapiens) (UniProt P41145); conditions: Compound concentration 10.0 uM
Kappa-type opioid receptor (Homo sapiens), sequence (P41145 whole entry): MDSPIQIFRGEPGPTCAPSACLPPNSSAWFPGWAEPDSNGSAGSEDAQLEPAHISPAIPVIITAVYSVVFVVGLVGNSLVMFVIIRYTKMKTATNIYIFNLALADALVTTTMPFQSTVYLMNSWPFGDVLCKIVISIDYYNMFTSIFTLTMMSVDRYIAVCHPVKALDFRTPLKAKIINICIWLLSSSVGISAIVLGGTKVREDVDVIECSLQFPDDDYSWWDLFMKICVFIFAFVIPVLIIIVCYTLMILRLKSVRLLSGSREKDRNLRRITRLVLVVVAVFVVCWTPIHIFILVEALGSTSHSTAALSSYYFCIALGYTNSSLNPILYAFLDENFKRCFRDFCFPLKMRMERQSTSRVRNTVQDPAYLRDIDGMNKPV

[4] = molecular target: Histamine H1 receptor (Homo sapiens) (UniProt P35367); conditions: Compound concentration 10.0 uM
Histamine H1 receptor (Homo sapiens), sequence (P35367 whole entry): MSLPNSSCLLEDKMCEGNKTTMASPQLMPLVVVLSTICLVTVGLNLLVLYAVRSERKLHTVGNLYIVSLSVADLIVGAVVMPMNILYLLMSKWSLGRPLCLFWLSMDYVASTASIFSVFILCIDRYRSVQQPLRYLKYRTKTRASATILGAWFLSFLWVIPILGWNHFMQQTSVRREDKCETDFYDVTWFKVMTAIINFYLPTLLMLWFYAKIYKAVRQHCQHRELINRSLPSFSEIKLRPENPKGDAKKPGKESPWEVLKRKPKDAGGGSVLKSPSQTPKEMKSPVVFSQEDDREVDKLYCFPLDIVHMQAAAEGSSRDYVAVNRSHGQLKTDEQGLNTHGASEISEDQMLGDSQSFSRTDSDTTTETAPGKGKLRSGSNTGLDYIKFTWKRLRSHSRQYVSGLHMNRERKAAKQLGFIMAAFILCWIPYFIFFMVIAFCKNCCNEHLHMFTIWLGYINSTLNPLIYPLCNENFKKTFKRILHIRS

[5] = molecular target: D(3) dopamine receptor (Homo sapiens, UniProt P35462); conditions: Compound concentration 10.0 uM
[6] = species on record: Rattus norvegicus; test: Inhibition of Glycine, Strychnine-Sensitive at 10 µM in the Eurofins-Panlabs radioligand binding assay (Eurofins_assay_239000); conditions: Compound concentration 10.0 uM
[7] = molecular target: Histamine H2 receptor (Homo sapiens) (UniProt P25021); conditions: Compound concentration 10.0 uM
[8] = molecular target: Histamine H1 receptor (Homo sapiens) (UniProt P35367); conditions: Compound concentration 10.0 uM; remark: listed apart in the source
[9] = molecular target: D(2) dopamine receptor (Homo sapiens) (UniProt P14416); conditions: Compound concentration 10.0 uM
D(2) dopamine receptor (Homo sapiens), sequence (P14416 whole entry): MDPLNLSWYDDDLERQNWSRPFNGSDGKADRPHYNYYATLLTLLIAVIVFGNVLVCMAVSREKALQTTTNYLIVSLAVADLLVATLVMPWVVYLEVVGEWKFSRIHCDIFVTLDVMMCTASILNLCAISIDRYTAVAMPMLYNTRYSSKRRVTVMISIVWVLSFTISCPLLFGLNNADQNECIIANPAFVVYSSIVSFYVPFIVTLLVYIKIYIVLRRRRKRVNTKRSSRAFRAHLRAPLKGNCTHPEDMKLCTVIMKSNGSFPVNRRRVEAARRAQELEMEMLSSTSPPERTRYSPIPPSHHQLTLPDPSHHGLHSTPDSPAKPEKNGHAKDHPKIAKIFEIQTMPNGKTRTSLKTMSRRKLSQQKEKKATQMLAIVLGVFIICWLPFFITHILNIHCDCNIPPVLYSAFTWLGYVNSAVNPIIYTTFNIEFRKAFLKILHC

[10] = species on record: Homo sapiens; test: Estrogen ERbeta Eurofins-Panlabs radioligand binding assay; conditions: Compound concentration 10.0 uM
[11] = molecular target: D(1A) dopamine receptor (Homo sapiens) (UniProt P21728); conditions: Compound concentration 10.0 uM
[12] = species on record: Rattus norvegicus; test: Opiate, Non-Selective Eurofins-Panlabs radioligand binding assay; design: ligand concentration 1 nM; conditions: Compound concentration 10.0 uM
[13] = molecular target: Adenosine receptor A1 (Homo sapiens) (UniProt P30542); conditions: Compound concentration 10.0 uM
Adenosine receptor A1 (Homo sapiens), sequence (P30542 whole entry): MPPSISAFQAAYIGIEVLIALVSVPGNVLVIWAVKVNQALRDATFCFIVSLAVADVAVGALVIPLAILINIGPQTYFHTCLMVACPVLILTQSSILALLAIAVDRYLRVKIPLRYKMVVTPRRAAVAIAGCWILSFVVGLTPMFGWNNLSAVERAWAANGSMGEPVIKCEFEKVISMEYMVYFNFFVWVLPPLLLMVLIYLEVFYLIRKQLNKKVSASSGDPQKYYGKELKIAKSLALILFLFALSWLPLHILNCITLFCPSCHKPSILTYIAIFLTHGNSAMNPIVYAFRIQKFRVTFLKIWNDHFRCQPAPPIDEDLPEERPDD

[14] = molecular target: Progesterone receptor (Homo sapiens) (UniProt P06401); test: Inhibition of Progesterone PR-B at 10 µM in the Eurofins-Panlabs radioligand binding assay (Eurofins_assay_268020); design: ligand concentration 1.4 nM; conditions: Compound concentration 10.0 uM
[15] = molecular target: D(2) dopamine receptor (Homo sapiens) (UniProt P14416); conditions: Compound concentration 10.0 uM; remark: listed apart in the source
[16] = species on record: Homo sapiens; test: Prostanoid, Thromboxane A2 (TP) Eurofins-Panlabs radioligand binding assay; design: ligand concentration 5 nM, non-specific ligand with concentration 1 µM SQ-29548, incubation time 30 min, incubation temperature 25 °C; conditions: Compound concentration 10.0 uM
[17] = molecular target: GABA-A receptor; anion channel (Rattus norvegicus) (UniProt O09028+P15431+P18506+P18508+P19969+P20236+P23574+P23576+P28471+P28473+P30191+P62813+P63079+P63138+Q91ZM7+Q9ES14); test: Inhibition of GABAA, Muscimol, Central at 10 µM in the Eurofins-Panlabs radioligand binding assay (Eurofins_assay_226500); type: protein-complex assay; conditions: Compound concentration 10.0 uM
[18] = molecular target: Substance-K receptor (Homo sapiens) (UniProt P21452); test: Inhibition of Tachykinin NK2 at 10 µM in the Eurofins-Panlabs radioligand binding assay (Eurofins_assay_255600); design: ligand concentration 0.5 nM; conditions: Compound concentration 10.0 uM
Substance-K receptor (Homo sapiens), sequence (P21452 whole entry): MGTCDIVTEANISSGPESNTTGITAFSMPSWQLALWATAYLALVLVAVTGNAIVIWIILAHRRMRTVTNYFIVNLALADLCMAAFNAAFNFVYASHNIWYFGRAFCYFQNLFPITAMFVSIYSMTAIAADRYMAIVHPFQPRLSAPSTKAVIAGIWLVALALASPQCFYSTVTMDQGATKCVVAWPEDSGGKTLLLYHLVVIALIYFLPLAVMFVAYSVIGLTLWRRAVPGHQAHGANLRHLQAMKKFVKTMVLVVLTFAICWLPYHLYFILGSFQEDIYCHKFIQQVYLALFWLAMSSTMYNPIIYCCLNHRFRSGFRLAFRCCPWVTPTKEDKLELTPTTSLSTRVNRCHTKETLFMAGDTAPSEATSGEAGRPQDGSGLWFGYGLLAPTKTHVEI

[19] = molecular target: 5-hydroxytryptamine receptor 1D (Homo sapiens) (UniProt P28221); conditions: Compound concentration 10.0 uM
5-hydroxytryptamine receptor 1D (Homo sapiens), sequence (P28221 whole entry): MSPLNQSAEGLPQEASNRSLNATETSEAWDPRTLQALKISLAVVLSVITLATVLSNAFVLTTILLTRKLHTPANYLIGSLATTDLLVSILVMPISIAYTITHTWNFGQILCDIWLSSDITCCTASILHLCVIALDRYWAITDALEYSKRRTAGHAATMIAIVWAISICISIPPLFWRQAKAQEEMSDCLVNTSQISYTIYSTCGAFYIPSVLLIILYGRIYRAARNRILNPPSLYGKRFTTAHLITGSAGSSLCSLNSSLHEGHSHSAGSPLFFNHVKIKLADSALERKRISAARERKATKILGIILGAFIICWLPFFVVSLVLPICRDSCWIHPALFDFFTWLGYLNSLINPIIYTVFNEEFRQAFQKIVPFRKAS

[20] = molecular target: Platelet-activating factor receptor (Homo sapiens) (UniProt P25105); test: Inhibition of Platelet Activating Factor (PAF) at 10 µM in the Eurofins-Panlabs radioligand binding assay (Eurofins_assay_265010); conditions: Compound concentration 10.0 uM
Platelet-activating factor receptor (Homo sapiens), sequence (P25105 whole entry): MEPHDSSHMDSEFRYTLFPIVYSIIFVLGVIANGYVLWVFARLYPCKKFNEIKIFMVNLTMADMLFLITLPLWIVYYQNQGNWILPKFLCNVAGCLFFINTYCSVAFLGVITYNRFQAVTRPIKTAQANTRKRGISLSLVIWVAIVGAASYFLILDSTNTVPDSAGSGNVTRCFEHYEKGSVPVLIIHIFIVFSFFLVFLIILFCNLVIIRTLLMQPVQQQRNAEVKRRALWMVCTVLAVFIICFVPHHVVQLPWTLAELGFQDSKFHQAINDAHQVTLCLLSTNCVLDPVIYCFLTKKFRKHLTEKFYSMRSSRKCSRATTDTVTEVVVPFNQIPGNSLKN

[21] = species on record: Rattus norvegicus; test: Adrenergic α1, Non-selective Eurofins-Panlabs radioligand binding assay; type: protein assay; conditions: Compound concentration 10.0 uM
[22] = molecular target: voltage-gated sodium channel, site 2 (Rattus norvegicus, UniProt F1LQQ7+O08562+O88420+O88457+P04774+P04775+P08104+P15389+P15390+Q62968); test: Inhibition of Sodium Channel, Site 2 at 10 µM in the Eurofins-Panlabs radioligand binding assay (Eurofins_assay_279510); type: protein assay; design: ligand concentration 5 nM, non-specific ligand with concentration 100 µM Veratridine, incubation time 60 min, incubation temperature 37 °C; conditions: male, Wistar, rat whole brain (except cerebellum) membranes, probe [3H] Batrachotoxinin, 5 nM, compound concentration 10 uM
[23] = molecular target: Mu-type opioid receptor (Homo sapiens) (UniProt P35372); conditions: Compound concentration 10.0 uM
[24] = molecular target: Type-1 angiotensin II receptor (Homo sapiens) (UniProt P30556); test: Angiotensin AT1 Eurofins-Panlabs radioligand binding assay; conditions: Compound concentration 10.0 uM
[25] = molecular target: Growth hormone secretagogue receptor type 1 (Homo sapiens) (UniProt Q92847); conditions: Compound concentration 10.0 uM
Growth hormone secretagogue receptor type 1 (Homo sapiens), sequence (Q92847 whole entry): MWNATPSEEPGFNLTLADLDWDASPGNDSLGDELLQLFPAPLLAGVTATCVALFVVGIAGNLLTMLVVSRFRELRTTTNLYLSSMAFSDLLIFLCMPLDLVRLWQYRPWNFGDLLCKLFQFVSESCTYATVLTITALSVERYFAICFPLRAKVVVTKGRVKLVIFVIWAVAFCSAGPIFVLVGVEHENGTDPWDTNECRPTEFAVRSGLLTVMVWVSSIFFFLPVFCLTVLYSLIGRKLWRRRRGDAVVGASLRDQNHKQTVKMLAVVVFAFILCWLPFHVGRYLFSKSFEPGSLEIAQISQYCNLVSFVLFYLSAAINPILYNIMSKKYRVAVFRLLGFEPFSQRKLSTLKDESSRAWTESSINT

[26] = molecular target: Glutamate NMDA receptor (Rattus norvegicus) (UniProt P35439+Q00959+Q00960+Q00961+Q62645+Q8VHN2+Q9R1M7); conditions: Compound concentration 10.0 uM
[27] = molecular target: Vasopressin V1b receptor (Homo sapiens) (UniProt P47901); test: Inhibition of Vasopressin V1B at 10 µM in the Eurofins-Panlabs radioligand binding assay (Eurofins_assay_287560); design: ligand concentration 1 nM; conditions: Compound concentration 10.0 uM
Vasopressin V1b receptor (Homo sapiens), sequence (P47901 whole entry): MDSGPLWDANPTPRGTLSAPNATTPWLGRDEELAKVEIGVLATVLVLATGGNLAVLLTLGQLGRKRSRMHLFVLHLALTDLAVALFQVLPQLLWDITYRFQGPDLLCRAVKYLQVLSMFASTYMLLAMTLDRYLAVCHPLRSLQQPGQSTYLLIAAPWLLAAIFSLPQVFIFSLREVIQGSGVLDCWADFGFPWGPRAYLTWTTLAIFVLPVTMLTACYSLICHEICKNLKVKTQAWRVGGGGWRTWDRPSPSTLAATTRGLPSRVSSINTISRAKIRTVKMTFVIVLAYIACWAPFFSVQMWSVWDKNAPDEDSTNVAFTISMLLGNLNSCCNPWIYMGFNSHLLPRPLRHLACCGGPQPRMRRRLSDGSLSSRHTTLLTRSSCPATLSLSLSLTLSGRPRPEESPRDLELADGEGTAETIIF

[28] = molecular target: Beta-1 adrenergic receptor (Homo sapiens) (UniProt P08588); conditions: Compound concentration 10.0 uM
Beta-1 adrenergic receptor (Homo sapiens), sequence (P08588 whole entry, looked up): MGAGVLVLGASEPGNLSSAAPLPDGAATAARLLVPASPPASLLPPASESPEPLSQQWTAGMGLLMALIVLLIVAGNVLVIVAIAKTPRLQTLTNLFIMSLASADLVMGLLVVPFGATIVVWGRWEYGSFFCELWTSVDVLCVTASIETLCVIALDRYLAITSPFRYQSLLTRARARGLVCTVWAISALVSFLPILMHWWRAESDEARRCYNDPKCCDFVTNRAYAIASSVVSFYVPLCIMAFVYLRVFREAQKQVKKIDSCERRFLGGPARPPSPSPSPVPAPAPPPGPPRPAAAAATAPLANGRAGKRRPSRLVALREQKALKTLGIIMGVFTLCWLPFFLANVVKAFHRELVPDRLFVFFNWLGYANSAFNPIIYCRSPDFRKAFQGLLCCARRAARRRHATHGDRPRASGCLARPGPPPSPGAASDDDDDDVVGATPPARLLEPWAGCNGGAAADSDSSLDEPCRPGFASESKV

[29] = molecular target: Substance-P receptor (Homo sapiens) (UniProt P25103); test: Tachykinin NK1 Eurofins-Panlabs radioligand binding assay; conditions: Compound concentration 10.0 uM
[30] = molecular target: Endothelin-1 receptor (Homo sapiens) (UniProt P25101); conditions: Compound concentration 10.0 uM
[31] = molecular target: 5-hydroxytryptamine receptor 1A (Homo sapiens) (UniProt P08908); conditions: Compound concentration 10.0 uM
[32] = molecular target: T1, D(4) dopamine receptor (Homo sapiens) (UniProt P21917); conditions: Compound concentration 10.0 uM
T1 sequence (whole entry): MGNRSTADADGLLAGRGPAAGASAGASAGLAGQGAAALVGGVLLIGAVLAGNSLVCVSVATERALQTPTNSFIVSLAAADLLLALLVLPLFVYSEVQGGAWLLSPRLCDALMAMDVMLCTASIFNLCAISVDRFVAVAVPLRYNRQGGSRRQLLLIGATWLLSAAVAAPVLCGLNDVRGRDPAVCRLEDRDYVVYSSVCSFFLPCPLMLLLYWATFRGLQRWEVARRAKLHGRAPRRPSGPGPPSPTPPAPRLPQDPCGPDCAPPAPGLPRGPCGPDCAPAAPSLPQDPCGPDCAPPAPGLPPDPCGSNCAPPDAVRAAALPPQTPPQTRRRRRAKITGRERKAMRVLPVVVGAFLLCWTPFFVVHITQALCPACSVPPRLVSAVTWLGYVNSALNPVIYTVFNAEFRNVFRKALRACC

[33] = molecular target: Gamma-aminobutyric acid type B receptor subunit 1 (Homo sapiens) (UniProt Q9UBS5); test: GABAB1B Eurofins-Panlabs radioligand binding assay; conditions: Compound concentration 10.0 uM
[34] = molecular target: Histamine H3 receptor (Homo sapiens) (UniProt Q9Y5N1); conditions: Compound concentration 10.0 uM
Histamine H3 receptor (Homo sapiens), sequence (Q9Y5N1 whole entry): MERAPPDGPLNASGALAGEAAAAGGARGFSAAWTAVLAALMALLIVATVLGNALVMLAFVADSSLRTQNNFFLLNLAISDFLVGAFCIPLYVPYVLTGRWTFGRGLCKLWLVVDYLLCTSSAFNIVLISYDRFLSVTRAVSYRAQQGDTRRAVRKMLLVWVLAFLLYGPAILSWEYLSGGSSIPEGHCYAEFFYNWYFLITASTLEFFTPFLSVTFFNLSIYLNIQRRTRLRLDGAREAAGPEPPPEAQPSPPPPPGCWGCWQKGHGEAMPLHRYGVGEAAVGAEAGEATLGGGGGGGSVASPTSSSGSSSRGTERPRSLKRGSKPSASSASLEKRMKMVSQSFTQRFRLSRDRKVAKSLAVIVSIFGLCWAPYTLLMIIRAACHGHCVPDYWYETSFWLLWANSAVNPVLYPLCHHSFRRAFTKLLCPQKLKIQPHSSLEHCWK

[35] = molecular target: ATP-sensitive inward rectifier potassium channel 11 (Cricetulus griseus) (UniProt A0A3L7HHE1); test: Inhibition of Potassium Channel [KATP] at 10 µM in the Eurofins-Panlabs radioligand binding assay (Eurofins_assay_265600); conditions: Cricetinae; Compound concentration 10.0 uM

5-hydroxytryptamine receptor 2B (Homo sapiens), sequence (P41595 whole entry): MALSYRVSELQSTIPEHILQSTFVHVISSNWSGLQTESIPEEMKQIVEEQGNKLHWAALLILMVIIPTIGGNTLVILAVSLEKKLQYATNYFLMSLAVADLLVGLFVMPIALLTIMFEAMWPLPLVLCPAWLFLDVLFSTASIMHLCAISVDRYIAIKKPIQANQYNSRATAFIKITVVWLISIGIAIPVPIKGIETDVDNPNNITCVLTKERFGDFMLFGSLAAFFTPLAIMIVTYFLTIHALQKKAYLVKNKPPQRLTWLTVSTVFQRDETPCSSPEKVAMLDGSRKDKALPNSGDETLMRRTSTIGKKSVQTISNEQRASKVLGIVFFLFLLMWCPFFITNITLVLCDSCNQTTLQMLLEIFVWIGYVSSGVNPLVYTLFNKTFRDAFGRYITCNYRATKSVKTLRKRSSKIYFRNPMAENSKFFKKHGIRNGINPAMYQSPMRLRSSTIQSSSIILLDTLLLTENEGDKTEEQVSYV

Row | Compound | inhibition [1] [%] | inhibition [2] [%] | inhibition [3] [%] | inhibition [4] [%] | inhibition [5] [%] | inhibition [6] [%] | inhibition [7] [%] | inhibition [8] [%] | inhibition [9] [%] | inhibition [10] [%] | inhibition [11] [%] | inhibition [12] [%] | inhibition [13] [%] | inhibition [14] [%] | inhibition [15] [%] | inhibition [16] [%] | inhibition [17] [%] | inhibition [18] [%] | inhibition [19] [%] | inhibition [20] [%] | also measured
1 | Cc1cc(OC2CCS(=O)(=O)CC2)cc(C)c1-c1cccc(COc2ccc(C(=O)O)c(F)c2)c1 | -8 | 3 | 4.04 | 2 | 7.34 | 5 | 7.66 | -2.18 | 8.6 | 8 | -3 | 3 | -4 | 6 | -4 | 28 | 8 | 3 | 29.5 | 2 | inhibition [21]: -1%; inhibition at 60 min, 10 µM [22]: -5% (not active); inhibition [23]: 10%; inhibition [24]: 1%; inhibition [25]: -1%; inhibition [26]: 7%; inhibition [27]: -4%; inhibition [28]: -4%; inhibition [29]: 3%; inhibition [30]: -2%; inhibition [31]: -6.09%; inhibition [32]: 7.27%; inhibition [33]: 10%; inhibition [34]: 6.7%; inhibition [35]: -3%
2 | Cc1cc(OC2CCS(=O)(=O)CC2)cc(C)c1-c1cccc(COc2ccc(CCC(=O)O)c(F)c2)c1 | 8 | 21.5 | 10.2 | -7 | 59.6 | 7 | 5.95 | 12 | 16.6 | 20 | 24 | -8 | -1 | 10 | -2 | 60 | 3 | 29 | 35.8 | 4 | inhibition [21]: -2%; inhibition at 60 min, 10 µM [22]: 6% (not active); inhibition [23]: 5%; inhibition [24]: 14%; inhibition [25]: 2%; inhibition [26]: 8%; inhibition [27]: -4%; inhibition [28]: 5%; inhibition [29]: 17%; inhibition [30]: -2%; inhibition [31]: 1.37%; inhibition [32]: 85.4%; inhibition [33]: 1%; inhibition [34]: 21.1%; inhibition [35]: 19%

— ChEMBL document CHEMBL5058642, “Data for DCP probe TP-051” (2022)
